Legend:
Type in all cases: in vivo
Myzus persicae [1] = test: Larvae treatment Aphidoletes: infestation by Myzus persicae on Savoy cabbage; details: Savoy cabbage with Aphidoletes larvae
Method: (§1) Foliar treatment is carried out using compound (I-5) in a concentration of 75 g of active compound per hectare.
(§2) Drench treatment is carried out using compound (I-5) in a concentration of 10 mg of active compound per plant.
(§3) Foliar treatment with Karate Zeon CS100 as toxic control was carried out in a concentration of 12.5 g of active compound per hectare.
(§4) Beneficial species: Aphidoletes aphidimyza larvae Pest: Myzus persicae
(§5) Each experiment is carried out in 3 repetitions.
(§6) Per plot, 6 Savoy cabbage plants are placed into a planting-out tray and infested with Myzus persicae. About 1 week later, with a well-established Myzus population, the Aphidoletes aphidimyza are added. The application is carried after about 2 weeks once sufficient L2 stage Aphidoletes larvae are present (at least 20 larvae per tray).
(§7) In preparation for the application, the plants are reduced to 4 healthy green leaves.
(§8) Immediately prior to the application, the Myzus population and the number of Aphidoletes larvae are rated. For the application, all 6 plants of a plot are placed onto the turntable, and the amount of spray liquor for 0.666 m^2 is applied while turning slowly. After the application, the trays are placed into the standard cages.
(§9) For each plant, the number of Myzus persicae is estimated at the beginning at the appropriate points in time, and the larvae are counted accurately.

[2] = system: Aphidoletes aphidimyza larvae; test: Larvae treatment Aphidoletes: kill of beneficial species larvae on Savoy cabbage
Method: as §1, §2, §3, §4, §5, §6, §7, §8, §9

Metopolophium dirhodum = test: Treatment Anthocoris adult: infestation by Metopolophium dirhodum on maize; details: Anthocoris adults added
Method: as §1, §2, §3
(§10) Beneficial species: Anthocoris nemoralis adults Pest: Metopolophium dirhodum
(§11) Per experiment, 3 repetitions with in each case 2 pot cages with in each case 5 adults are carried out.
(§12) For the experiment, maize plants are grown in pots having a diameter of 14 cm, placed in a breeding cage and infested thoroughly with Metopolophium dirhodum. Per experiment, 6 pots having a well-established aphid population are selected and the aphids are rated by estimation of their number. The plants are treated with the active compound solution of the appropriate concentration.
(§13) After the spray coating has dried on, a quartz sand layer of a thickness of about 1 cm is applied to the soil in the pot, and the pot cage is put over the plant.
(§14) In each case 5 Anthocoris adults are then counted out, and in each case 5 specimen are added to the plants in the pot cage.
(§15) For each plant, at the beginning the Metopolophium dirhodum number is estimated at the appropriate points in time and the dead, dying and alive adults are counted separately. All adults, i.e. all adults present on the plant and the surface of the quartz sand base, are counted.

[3] = system: adult Nesidiocoris tenuis; test: Residual test with adult Nesidiocoris tenuis on tomato leaves
Method: Foliar treatment is carried out using compound (I-5) in a concentration of 150 g of active compound per hectare.
as §2
(§16) Foliar treatment with Karate Zeon CS100 as toxic control was carried out in a concentration of 12.5 g of active compound per hectare. The active compound in its respective formulation is brought to the required concentration by dilution with water.
Tomato plants cultivated in a greenhouse are treated with the respective active compound solutions. 1, 8, 15 and 22 days after the application, leaves are plucked from the test plants (5 samples per plot). The individual leaves are then mounted in test cages. 10 adult Nesidiocoris tenuis are added to each cage. The test cages are placed under controlled conditions in a climatized chamber. The kill of the insects is determined after 24, 48 and 72 hours of exposure.

[4] = system: Coccinella septempunctata L2 larvae; test: Larvae treatment Coccinella: kill of beneficial species larvae on Savoy cabbage
Method: as §1, §2, §3
(§17) Beneficial species: Coccinella septempunctata L2 larvae Pest: Myzus persicae
(§18) Each experiment is carried out in 3 repetitions with in each case 2 pot cages with in each case 5 larvae.
(§19) For the experiment, Savoy cabbage plants are grown in pots having a diameter of 14 cm, placed in a breeding cage and infested thoroughly with Myzus persicae. Per experiment, 6 pots having a well-established aphid population are selected and the aphids are rated by estimation of their number. The plants are treated with the active compound solution of the appropriate concentration.
(§20) After the spray coating has dried on, a quartz sand layer of a thickness of about 1 cm is applied to the soil in the pot, and the pot cage is put over the plant. In each case 5 Coccinella larvae are then counted out, and in each case 5 specimen are added to the plants in the pot cage.
(§21) For each plant, at the beginning the Myzus persicae number is estimated at the appropriate points in time and the dead, dying and alive larvae are counted separately. All larvae, i.e. all larvae present on the plant and the surface of the quartz sand base, are counted.

[5] = system: Anthocoris nemoralis adults; test: Treatment Anthocoris adult: kill of beneficial species adults on maize
Method: as §1, §2, §3, §10, §11, §12, §13, §14, §15

Myzus persicae [6] = test: Larvae treatment Coccinella: infestation by Myzus persicae on Savoy cabbage; details: Coccinella larvae added
Method: as §1, §2, §3, §17, §18, §19, §20, §21

[7] = system: Macrolophus caliginosus nymphs; test: Residual test with nymphs of Macrolophus caliginosus on tomato leaves
Method: Foliar treatment is carried out using compound (I-5) in a concentration of 100 g of active compound per hectare.
Drench treatment is carried out using compound (I-5) in a concentration of 15 mg of active compound per plant.
as §16
Tomato plants cultivated in a greenhouse are treated with the respective active compound solutions. 1, 8, 16 and 23 days after the application, leaves are plucked from the test plants (5 samples per plot). The individual leaves are then mounted in test cages. 10 Macrolophus caliginosus nymphs are added to each cage. The test cages are placed under controlled conditions in a climatized chamber. The kill of the insects/larvae is determined after 24, 48 and 72 hours of exposure.

[8] = 5 days after application, drench 10 mg a.i./plant
[9] = 5 days after application, foliar: (I-5) 75 g a.i./ha, Karate Zeon CS100 12.5 g a.i./ha
[10] = prior to application (baseline), drench 10 mg a.i./plant
[11] = prior to application (baseline), foliar: (I-5) 75 g a.i./ha, Karate Zeon CS100 12.5 g a.i./ha
[12] = 0 days after application, drench 10 mg a.i./plant
[13] = 0 days after application, foliar: (I-5) 75 g a.i./ha, Karate Zeon CS100 12.5 g a.i./ha
[14] = 1 day after application, drench 10 mg a.i./plant
[15] = 1 day after application, foliar: (I-5) 75 g a.i./ha, Karate Zeon CS100 12.5 g a.i./ha
[16] = 3 days after application, drench 10 mg a.i./plant
[17] = 3 days after application, foliar: (I-5) 75 g a.i./ha, Karate Zeon CS100 12.5 g a.i./ha

O=C1C=C(N(Cc2ccc(Cl)nc2)CC(F)F)CO1 [compound (I-5), 4-{[(6-chloropyrid-3-yl)methyl](2,2-difluoroethyl)amino}furan-2(5H)-one]
Infestation by Myzus persicae (number per plant) (Myzus persicae [1]; [8]): 19.4 number per plant | Infestation by Myzus persicae (number per plant) (Myzus persicae [1]; [9]): 0 number per plant | Infestation by Myzus persicae (number per plant) (Myzus persicae [1]; [10]): 367 number per plant | Infestation by Myzus persicae (number per plant) (Myzus persicae [1]; [11]): 344 number per plant | kill of Aphidoteles aphidimyza larvae [% Abbott] [2, 12]: 0% | kill of Aphidoteles aphidimyza larvae [% Abbott] [2, 13]: 0% | kill of Aphidoteles aphidimyza larvae [% Abbott] [2, 14]: 3.2% | kill of Aphidoteles aphidimyza larvae [% Abbott] [2, 15]: 10.2% | kill of Aphidoteles aphidimyza larvae [% Abbott] [2, 16]: 4.3% | kill of Aphidoteles aphidimyza larvae [% Abbott] [2, 17]: 10.5% | kill of Aphidoteles aphidimyza larvae [% Abbott] [2, 8]: 7.8% | kill of Aphidoteles aphidimyza larvae [% Abbott] [2, 9]: 15.2% | Infestation by Metopolophium dirhodum (number per plant) (Metopolophium dirhodum; [8]): 2.5 number per plant | Infestation by Metopolophium dirhodum (number per plant) (Metopolophium dirhodum; [9]): 0 number per plant | Infestation by Metopolophium dirhodum (number per plant) (Metopolophium dirhodum; drench 10 mg a.i./plant): 85 number per plant | Infestation by Metopolophium dirhodum (number per plant) (Metopolophium dirhodum; foliar: (I-5) 75 g a.i./ha, Karate Zeon CS100 12.5 g a.i./ha): 78 number per plant | Activity against adult Nesidiocoris tenuis on tomato [% kill according to Schneider-Orelli] ([3]; leaves plucked 1 day after application, drench 10 mg a.i./plant): 4.9% | Activity against adult Nesidiocoris tenuis on tomato [% kill according to Schneider-Orelli] ([3]; leaves plucked 1 day after application, foliar: (I-5) 150 g a.i./ha, Karate Zeon CS100 12.5 g a.i./ha): 91.1% | Activity against adult Nesidiocoris tenuis on tomato [% kill according to Schneider-Orelli] ([3]; leaves plucked 8 days after application, drench 10 mg a.i./plant): 47.3% | Activity against adult Nesidiocoris tenuis on tomato [% kill according to Schneider-Orelli] ([3]; leaves plucked 8 days after application, foliar: (I-5) 150 g a.i./ha, Karate Zeon CS100 12.5 g a.i./ha): 81.3% | Activity against adult Nesidiocoris tenuis on tomato [% kill according to Schneider-Orelli] ([3]; leaves plucked 15 days after application, drench 10 mg a.i./plant): 24.4% | Activity against adult Nesidiocoris tenuis on tomato [% kill according to Schneider-Orelli] ([3]; leaves plucked 15 days after application, foliar: (I-5) 150 g a.i./ha, Karate Zeon CS100 12.5 g a.i./ha): 32.1% | Activity against adult Nesidiocoris tenuis on tomato [% kill according to Schneider-Orelli] ([3]; leaves plucked 22 days after application, drench 10 mg a.i./plant): 66% | Activity against adult Nesidiocoris tenuis on tomato [% kill according to Schneider-Orelli] ([3]; leaves plucked 22 days after application, foliar: (I-5) 150 g a.i./ha, Karate Zeon CS100 12.5 g a.i./ha): 45.8% | kill of Coccinella septempunctata larvae [% Abbott] [4, 12]: 0% | kill of Coccinella septempunctata larvae [% Abbott] [4, 13]: 0% | kill of Coccinella septempunctata larvae [% Abbott] [4, 14]: 1.7% | kill of Coccinella septempunctata larvae [% Abbott] [4, 15]: 3.3% | kill of Coccinella septempunctata larvae [% Abbott] [4, 16]: 1.7% | kill of Coccinella septempunctata larvae [% Abbott] [4, 17]: 1.7% | kill of Coccinella septempunctata larvae [% Abbott] [4, 8]: 3.4% | kill of Coccinella septempunctata larvae [% Abbott] [4, 9]: 6.9% | kill of adult Anthocoris nemoralis [% Abbott] [5, 12]: 0% | kill of adult Anthocoris nemoralis [% Abbott] [5, 13]: 0% | kill of adult Anthocoris nemoralis [% Abbott] [5, 14]: 0% | kill of adult Anthocoris nemoralis [% Abbott] [5, 15]: 0% | kill of adult Anthocoris nemoralis [% Abbott] [5, 16]: 1.7% | kill of adult Anthocoris nemoralis [% Abbott] [5, 17]: 3.3% | kill of adult Anthocoris nemoralis [% Abbott] [5, 8]: 3.3% | kill of adult Anthocoris nemoralis [% Abbott] [5, 9]: 6.7% | Infestation by Myzus persicae (number per plant) (Myzus persicae [6]; [8]): 165 number per plant | Infestation by Myzus persicae (number per plant) (Myzus persicae [6]; [9]): 0 number per plant | Infestation by Myzus persicae (number per plant) (Myzus persicae [6]; [10]): 552 number per plant | Infestation by Myzus persicae (number per plant) (Myzus persicae [6]; [11]): 602 number per plant | Activity against nymphs of Macrolophus caliginosus on tomato [% kill according to Schneider-Orelli] ([7]; leaves plucked 1 day after application, drench 15 mg a.i./plant): 0% | Activity against nymphs of Macrolophus caliginosus on tomato [% kill according to Schneider-Orelli] ([7]; leaves plucked 1 day after application, foliar: (I-5) 100 g a.i./ha, Karate Zeon CS100 12.5 g a.i./ha): 52.2% | Activity against nymphs of Macrolophus caliginosus on tomato [% kill according to Schneider-Orelli] ([7]; leaves plucked 8 days after application, drench 15 mg a.i./plant): 65.4% | Activity against nymphs of Macrolophus caliginosus on tomato [% kill according to Schneider-Orelli] ([7]; leaves plucked 8 days after application, foliar: (I-5) 100 g a.i./ha, Karate Zeon CS100 12.5 g a.i./ha): 72.2% | Activity against nymphs of Macrolophus caliginosus on tomato [% kill according to Schneider-Orelli] ([7]; leaves plucked 16 days after application, drench 15 mg a.i./plant): 35.7% | Activity against nymphs of Macrolophus caliginosus on tomato [% kill according to Schneider-Orelli] ([7]; leaves plucked 16 days after application, foliar: (I-5) 100 g a.i./ha, Karate Zeon CS100 12.5 g a.i./ha): 21.7% | Activity against nymphs of Macrolophus caliginosus on tomato [% kill according to Schneider-Orelli] ([7]; leaves plucked 23 days after application, drench 15 mg a.i./plant): 23.6% | Activity against nymphs of Macrolophus caliginosus on tomato [% kill according to Schneider-Orelli] ([7]; leaves plucked 23 days after application, foliar: (I-5) 100 g a.i./ha, Karate Zeon CS100 12.5 g a.i./ha): 41.8%

From patent US20110300110A1, “ENAMINOCARBONYL COMPOUND/BENEFICIAL ORGANISM COMBINATIONS” (BAYER CROPSCIENCE AG, priority 2008, published 2011)
